Data from PubChem BioAssay AID977618 (Broad Institute, 2014).
Where “and” joins values, the source holds several entries; their conditions need not be identical. Equal values may be shown once. Calls of active or inactive are those of the source.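 The calls were made as follows: active = compounds lowering the cell ATP signal with fitted AC50 at most twice the top tested dose; inconclusive = flat fit between -70 and -30, or a poor fit; inactive = the rest.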

Legend:
[1] = viability loss in HEK293T cells – cell-based, CellTiter-Glo luminescence, dry powder, set 16, cytotoxicity control, dose response (AID 977618); details: HEK293T viability, CellTiter-Glo ATP luminescence, 72 h; at 30 µM (top of the series)
[2] = system: HEK293T viability, CellTiter-Glo ATP luminescence, 72 h; test: as above

SMILES | activity change, negative = cytotoxicity [1] | AC50 [2]
CN(C)S(=O)(=O)c1ccc(N2CCCC2)c(C(=O)Nc2ccncc2)c1 | -8.58% (inactive) | –
Cc1cnc(NC(=O)c2cc(S(=O)(=O)N(C)C)ccc2N2CCC2)s1 | -5.02% (inactive) | –
CN(C)CCCN(Cc1cc2ccccc2[nH]c1=O)C(=O)Nc1ccccc1 | -4.05% (inactive) | –
CN(C)S(=O)(=O)c1ccc(N2CCCC2)c(C(=O)Nc2nccs2)c1 | -6.06% (inactive) | –
Cc1nnc(NC(=O)c2cc(S(=O)(=O)N(C)C)ccc2N2CCCC2)s1 | -7.43% (inactive) | –
COc1ccc2nc(NC(=O)c3cc(S(=O)(=O)N(C)C)ccc3N3CCCC3)sc2c1 | -3.18% (inactive) | –
Cc1ccccc1NC(=O)c1cc(S(=O)(=O)N(C)C)ccc1N1CCCC1 | -9.68% (inactive) | –
COc1ccc(NC(=O)c2cc(S(=O)(=O)N(C)C)ccc2N2CCCC2)cc1 | -3.02% (inactive) | –
Cc1cnc(NC(=O)c2cc(S(=O)(=O)N(C)C)ccc2N2CCNCC2)s1 | -1.97% (inactive) | –
Cc1cnc(NC(=O)c2cc(S(=O)(=O)N3CCNCC3)ccc2N2CCCC2)s1 | -12.1% (inactive) | –
CN(C)S(=O)(=O)c1ccc(N2CCCC2)c(C(=O)Nc2nc3ccccc3s2)c1 | 8.82% (inactive) | –
CN(C)S(=O)(=O)c1ccc(N2CCCC2)c(C(=O)NC2CCCCC2)c1 | -11.1% (inactive) | –
CN(C)S(=O)(=O)c1ccc(N2CCCC2)c(C(=O)N2CCOCC2)c1 | -15.1% (inactive) | –
Cc1cnc(NC(=O)c2cc(S(=O)(=O)N(C)C)ccc2N2CCCCC2)s1 | -9.94% (inactive) | –
COc1cccc2sc(NC(=O)c3cc(S(=O)(=O)N(C)C)ccc3N3CCCC3)nc12 | -4.26% (inactive) | –
CN(C)S(=O)(=O)c1ccc(N2CCCC2)c(C(=O)Nc2ccccc2Cl)c1 | -6.21% (inactive) | –
Cc1cnc(NC(=O)c2cc(S(=O)(=O)N(CC(C)C)CC(C)C)ccc2N2CCCC2)s1 | – | > 60 µM (inactive)
Cc1cnc(NC(=O)c2cc(S(=O)(=O)N(C)C)ccc2N(C)C)s1 | -10% (inactive) | –
Cc1cnc(NC(=O)c2cccc(S(=O)(=O)N(C)C)c2)s1 | -1.48% (inactive) | –
Cc1cnc(NC(=O)c2cc(S(=O)(=O)N3CCCC3)ccc2N2CCCC2)s1 | 16.8% (inactive) | –

SMILES | activity change, negative = cytotoxicity [1] | AC50 [2]
CCN(CC)S(=O)(=O)c1ccc(N2CCCC2)c(C(=O)Nc2ncc(C)s2)c1 | -2.95% (inactive) | –
CN(C)S(=O)(=O)c1ccc(N2CCCC2)c(C(=O)Nc2cccc(F)c2)c1 | -5.2% (inactive) | –
CCN(CC)c1ccc(S(=O)(=O)N(C)C)cc1C(=O)Nc1ncc(C)s1 | -18.6% (inactive) | –
CN(C)S(=O)(=O)c1ccc(N2CCCC2)c(C(=O)Nc2cccnc2)c1 | 3.26% (inactive) | –
Cc1cnc(NC(=O)c2cc(S(=O)(=O)N(C)C)ccc2N2CCCC2)s1 | 8.71% (inactive) and 10.8% (inactive) | –
CN(C)S(=O)(=O)c1ccc(N2CCCC2)c(C(=O)Nc2ccccc2)c1 | -5.37% (inactive) | –
Cc1cnc(NC(=O)c2cc(S(=O)(=O)N(C)C)ccc2C2CCCC2)s1 | -1.05% (inactive) | –
Cc1cnc(NC(=O)c2cc(S(=O)(=O)NCc3ccccc3)ccc2N2CCCC2)s1 | -10.3% (inactive) | –
CN(C)S(=O)(=O)c1ccc(N2CCCC2)c(C(=O)Nc2ccccc2F)c1 | -17.6% (inactive) | –
Cc1cnc(NC(=O)c2cc(S(=O)(=O)N(C)c3ccccc3)ccc2N2CCCC2)s1 | 1.78% (inactive) | –
Cc1cnc(NC(=O)c2cc(S(=O)(=O)N3CCCCC3)ccc2N2CCCC2)s1 | 1.32% (inactive) | –
Cc1ccc(NC(=O)c2cc(S(=O)(=O)N(C)C)ccc2N2CCCC2)cc1 | -11.3% (inactive) | –
Cc1nc(NC(=O)c2cc(S(=O)(=O)N(C)C)ccc2N2CCCC2)n[nH]1 | -1.85% (inactive) | –
CN(C)CCCN(Cc1cc2ccccc2[nH]c1=O)C(=O)NCc1ccccc1 | -7.51% (inactive) | –
CN(C)S(=O)(=O)c1ccc(N2CCCC2)c(C(=O)Nc2ccc(Br)cc2)c1 | -1.97% (inactive) | –
COc1ccccc1NC(=O)c1cc(S(=O)(=O)N(C)C)ccc1N1CCCC1 | -2.97% (inactive) | –
Cc1csc(NC(=O)c2cc(S(=O)(=O)N(C)C)ccc2N2CCCC2)n1 | -4.9% (inactive) | –
CN(C)C(=O)c1cc(S(=O)(=O)N(C)C)ccc1N1CCCC1 | 0.495% (inactive) | –
Cc1cnc(NC(=O)c2cc(S(=O)(=O)N3CCOCC3)ccc2N2CCCC2)s1 | 9.35% (inactive) | –
COc1ccc2sc(NC(=O)c3cc(S(=O)(=O)N(C)C)ccc3N3CCCC3)nc2c1 | 1.94% (inactive) | –
